Measured values from patent publication US10865176B2, “Small molecule modulators of microRNA-34a” (The Chinese University of Hong Kong, priority 2012, dated 2020).

Tests used:
PLC cells = assay: MTT cell viability assay, PLC/PRF/5; type: cell-based, human
Method: (§1) Cell viability was measured by 3-(4,5-Dimethylthiazol-2-yl)-2,5-diphenyltetrazolium bromide (MTT) assay. 1×10^3 Cells were seeded in triplicate on a 96 well plate and were allowed to grow for indicated time points. At each time point a set of cells were incubated with 0.5 mg/ml MTT diluted in 1×PBS. After 2 to 4 h incubation, the MTT solution was removed. The insoluble MTT was dissolved in DMSO. Absorbance at 570 nm was measured by an ELISA plate reader.

Bel-7404 cells = assay: MTT cell viability assay, Bel-7404; type: cell-based, human
Method: as §1

[1] = tested on: non-tumorigenic human hepatocyte cell line MIHA; assay: MTT cell viability assay, MIHA; type: cell-based; conditions: different concentrations and time points
Method: as §1

miR-34a promoter = miR-34a promoter luciferase activity assay in HCC cells; type: cell-based, human; conditions: 10 μM
Method: The pMIR-REPORT™ luciferase plasmid (1 μg; Ambion) was sequentially double digested with Sac I and Hind III (10 units each, 50 μL reaction; NEB) and was gel purified. Double stranded insert DNA encoding the miR-34a binding site was synthesized through standard oligonucleotide synthesis methods. The sequences used were Forward: 5′z […]-3′ (SEQ ID NO:1) and Reverse: 5′: […]-3′ (SEQ ID NO:2). The insert was hybridized (heated to 95° C., and cooled to 4° C. over 30 min, then held at 4° C. for 60 min) and ligated with T4 ligase (200 units, 10 μL reaction, 1:10 vector/insert ratio; NEB) into the digested pMIR-REPORT™ luciferase vector. Positive colonies were selected by PCR colony screens, and the construction of the pMIR-REPORT™-miR-34a vector was confirmed by double enzyme digestion with NheI, MluI and Nhe I, Hind III (NEB). The luciferase reporter vector containing the miR-34a promoter was kindly provided by Prof. Mendell J T from Johns Hopkins University (21).
MiR-34a reporter, the luciferase reporter vector containing miR-34a promoter and the control vectors were transfected into HCC cells 12 h before compound treatment. The Renilla luciferase vector pRL-SV40 was co-transfected as an internal control. HCC cells were then treated with compound for 48-72 h. The luciferase activity was measured by Dual Luciferase Reporter Assay (Promega) with a Wallac VICTOR^3V luminometer. The ratio of firefly luciferase to Renilla expression was calculated for each of the triplicates.

Hep3B cells = assay: MTT cell viability assay, Hep3B; type: cell-based, human; conditions: different concentrations and time points
Method: as §1

p53 [2] = target: p53 (Homo sapiens, UniProt P04637); assay: ChIP assay, p53 occupancy on miR-34a promoter; type: cell-based; conditions: HepG2 cells, 10 μM
Method: (§2) ChIP assay was performed as described before (26). Cross-linked chromatin were incubated overnight with anti-H3 (Cat #: 9003, Cell Signaling Technology), IgG (Cat #: 9003, Cell Signaling Technology), p53 (Cat #: sc-106, Santa Cruz, Cambridge, Mass.). The precipitated DNA were quantitated absolutely by real-time PCR and normalized by respective 2% input.

p53 [3] = assay: ChIP assay, p53 occupancy on miR-34a promoter; type: cell-based, human; conditions: Bel-7404 cells, 10 μM
Method: as §2

p53 [4] = assay: p53 expression by RT-PCR in HCC cells; type: cell-based, human; conditions: HepG2, Huh7 and Bel-7404 cells, 10 μM (FIG. 9A)
Method: (§3) Total RNA was reversely transcribed into cDNAs using High Capacity cDNA Reverse Transcription Kit (Applied Biosystems, Foster city, CA, USA) and nude RT kit (Invitrogen) individually. qRT-PCR was performed using SYBR Green PCR master mix (TaKaRa, Dalian, China). GAPDH was used as an endogenous control. For measuring miR-34a expression level, qPCR was performed by using SYBR Green PCR master mixture (Invitrogen) and U6 was used as the internal control. All samples were normalized to internal controls and fold changes were calculated by relative quantification (2^−ΔΔct).

[5] = tested on: CDK6, FOXP, Notch1 and Sirtuin; assay: Expression of other miR-34a targets by qRT-PCR in HCC cells; type: cell-based, human; conditions: 10 μM, 48 h
Method: (§4) Total RNA from cell cultures and HCC xenograft tumors were extracted using Trizol (Invitrogen) according to manufacturer's protocols. Total RNAs were dissolved into nuclease-free ddH2O. For protein extraction, cells and HCC xenograft tumors were lysed in 1×RIPA buffer with 1 mM PMSF and 1× complete protease inhibitor cocktail (Roche, Indianapolis, Ind.). Both RNA and protein were stored at −80° C.
as §3

[6] = tested on: human umbilical vein endothelial cells (HUVECs); assay: In vitro tube formation assay; type: cell-based; conditions: ECM gel, 4 h
Method: The in vitro tube formation assay with human umbilical vein endothelial cells (HUVECs) was performed using the in vitro Angiogenesis Assay Kit (Cell Biolabs). HUVECs were plated at the density of 2×10^4/well and treated with Dimethyl sulfoxide (DMSO) or Rubone ([…] or 2 μM) respectively for 24 h. HUVECs were then seeded onto the ECM gel surface and cultured for 4 h. Then, 100 μl 1× Staining Solution was applied to each well and incubated 30 min at 37° C. and images were captured with an Olympus SC35 camera (Olympus America, Inc., Melville, N.Y.). Tube formation was quantified by counting the number of branching points on each image.

[7] = HepG2 xenograft model, survival, body weight and side effects; conditions: for Body weight (g) initial / Body weight (g) end: mean (95% CI); for Body weight (g) end: end of 24 d treatment
Method: 5×10^6 HepG2 cells were suspended in 100 μl serum-free medium and subcutaneously (s.c.) inoculated into the dorsal flanks of nude mice. When tumors reached 5-10 mm in diameter, mice were randomly divided into 4 groups (n=5). […] Vehicle alone and Sorafenib were used as the negative and positive control respectively. Tumor volumes and body weight were measured once every two days. Tumor volume was calculated as [(Length×Width×Height)±2]. Treatment was continued for 24 d. Finally, all mice were sacrificed and tumors were excised. Tumor weight was recorded.

HCC cells = assay: MTT cell viability assay, HCC cell lines; type: cell-based, human; conditions: 5 μM
Method: as §1

miR-34a = assay: qRT-PCR of primary and mature miR-34a in HCC cells; type: cell-based, human; conditions: for increased miR-34a level by Rubone after p53 knockdown: 2 μM siRNAs targeting p53, 10 μM Rubone; for primary and mature miR-34a levels: 10 μM, 48 h
Method: as §4, §3

HepG2 cells = assay: MTT cell viability assay, HepG2; type: cell-based, human
Method: as §1

Sequence of p53 (Homo sapiens, UniProt P04637) (P04637 whole entry): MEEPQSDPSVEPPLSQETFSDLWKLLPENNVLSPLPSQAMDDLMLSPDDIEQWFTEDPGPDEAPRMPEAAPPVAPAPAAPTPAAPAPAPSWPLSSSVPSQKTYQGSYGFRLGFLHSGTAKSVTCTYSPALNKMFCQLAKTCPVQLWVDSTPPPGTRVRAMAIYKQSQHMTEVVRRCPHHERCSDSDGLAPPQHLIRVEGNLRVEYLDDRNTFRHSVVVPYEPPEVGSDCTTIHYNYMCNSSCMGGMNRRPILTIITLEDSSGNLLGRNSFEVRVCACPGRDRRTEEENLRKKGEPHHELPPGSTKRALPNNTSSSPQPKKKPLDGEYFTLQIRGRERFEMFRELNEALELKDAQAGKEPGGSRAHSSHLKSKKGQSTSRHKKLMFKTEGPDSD

In the case of COc1cc(O)c(C(=O)/C=C/c2cc(OC)c(OC)cc2OC)c(OC)c1 [Rubone, 2′-Hydroxy-2,4,4′,5,6′-pentamethoxychalcone], the “cell growth (MTT)” value (PLC cells; 10 μM) is reported as “significantly inhibited the growth”, the “effect of miR-34a inhibitors on growth inhibition by Rubone (MTT)” value (PLC cells; 10 μM Rubone with 2 μM miR-34a inhibitors, 72 h) is reported as “reversed the growth inhibitory effect” and the “effect of miR-34a mimics on chemosensitivity to Rubone (MTT)” value (PLC cells; 10 μM Rubone with 2 μM miR-34a mimics, 72 h) is reported as “enhanced the chemosensitivity”. The “growth inhibitory effect of Rubone after p53 knockdown (MTT)” value (Bel-7404 cells; Bel-7404, 2 μM siRNAs targeting p53, 10 μM Rubone) was “significantly reversed by knocking down p53”, the “cell growth (MTT)” value (Bel-7404 cells; Bel-7404, 10 μM) was “significantly inhibited the growth” and the “effect of miR-34a inhibitors on growth inhibition by Rubone (MTT)” value (Bel-7404 cells; Bel-7404, 10 μM Rubone with 2 μM miR-34a inhibitors, 72 h) was “reversed the growth inhibitory effect”. The “effect of miR-34a mimics on chemosensitivity to Rubone (MTT)” value (Bel-7404 cells; Bel-7404, 10 μM Rubone with 2 μM miR-34a mimics, 72 h) was “enhanced the chemosensitivity”, the “growth rate (MTT)” value [1] was “little changes in the growth rate” and the miR-34a promoter activity (miR-34a promoter; Bel-7404 (p53 mutant)) was “increased”. The miR-34a promoter activity (miR-34a promoter; Hep3B (p53 deletion)) was “no change”, the miR-34a promoter activity (miR-34a promoter; HepG2 (p53 wild type)) was “increased” and the “growth rate (MTT)” value (Hep3B cells) was “little changes in the growth rate”. The “p53 occupancy on miR-34a promoter” value (p53 [2]) was “significantly increased p53 occupancy”, the “p53 occupancy on miR-34a promoter” value (p53 [3]) was “significantly increased p53 occupancy” and the p53 expression (p53 [4]) was “not affected”. For the same compound, the “expression levels of CDK6, FOXP, Notch1 and Sirtuin” value ([5]; HepG2 cells) was “decreased”, the “expression levels of CDK6, FOXP, Notch1 and Sirtuin” value ([5]; Huh7 cells) was “decreased” and the tube score ([6]; 1 μM, control group 42.33, p=0.0036) was 3.667. The tube formation ([6]; 2 μM) was “no tubes formed at all”, the “Body weight (g) initial” value ([7]; 20 mg/kg group) was 19.60(95% CI = 18.49 − 20.71)/ g and the “Body weight (g) end” value ([7]; 20 mg/kg) was 23.60(95% CI = 21.93 − 25.27) g. The “Mice survival (n) initial/end” value ([7]; 20 mg/kg, gavage once every two days, 24 d) was 5/5, the “Body weight (g) initial” value ([7]; 50 mg/kg group) was 20.00(95% CI = 20.00 − 20.00)/ g and the “Body weight (g) end” value ([7]; 50 mg/kg) was 23.60(95% CI = 21.03 − 26.17) g. The “Mice survival (n) initial/end” value ([7]; 50 mg/kg, gavage once every two days, 24 d) was 5/5, the “side effect at the end of experiment” value ([7]; tumor bearing nude mice, gavage once every two days, 24 d) was “No obvious side effect” and the “cell growth (MTT)” value (HCC cells) was “inhibited the growth of HCC cells slightly”. For the same compound, the “increased miR-34a level by Rubone after p53 knockdown” value (miR-34a; Bel-7404 cells) was “significantly reversed by p53 knockdown”, the “primary and mature miR-34a levels” value (miR-34a; Hep3B cells (p53 deleted)) was “no change” and the “primary and mature miR-34a levels” value (miR-34a; HepG2 cells (wild-type p53)) was “significantly increased”. For the same compound, the “increased miR-34a level by Rubone after p53 knockdown” value (miR-34a; HepG2 cells) was “significantly reversed by p53 knockdown”, the “primary and mature miR-34a levels” value (miR-34a; Huh7 cells (mutant p53)) was “significantly increased” and the “growth inhibitory effect of Rubone after p53 knockdown (MTT)” value (HepG2 cells; HepG2, 2 μM siRNAs targeting p53, 10 μM Rubone) was “significantly reversed by knocking down p53”. For the same compound, the “cell growth (MTT)” value (HepG2 cells; HepG2, 10 μM) was “significantly inhibited the growth”.
